This is an account of results in patent US6451806B2, “Methods and compositions involving opioids and antagonists thereof” (Adolor Corporation, priority 1999, dated 2002).

In data set [1] the test system is opioid-induced nausea and pruritus. The following applies: Yuan, C.-S. et al. Drug and Alcohol Dependence 1998, 52, 161; cited from earlier work.
Data set [2] concerns morphine-induced constipation in mice. The data set is described as follows: mouse model of opioid-induced constipation (charcoal meal transit time). Type of data set: in vivo. An excerpt: This establishes that the compound of formula (II) is a gut-selective and peripherally-selective mu antagonist compound. In addition, it is orally effective in preventing or reversing morphine-induced constipation in mice.

For data set [3], the system named is analgesia and pupil constriction produced by intravenous morphine sulfate. Briefly: Phase II clinical study, third molar extraction dental surgery, intravenous morphine sulfate. The following applies: 4 mg total oral dose. Type of data set: in vivo, humans.
The next data set in a line: solubility in water. The class given is physicochemical. The following applies: except at low or high pH conditions. The text has this: Zwitterionic character may be inherent to the compound, and may impart desirable properties such as poor systemic absorption and sustained local affect on the gut following oral administration.
The test system of data set [4] is loperamide-induced slowing of gut motility. The data set is described as follows: clinical crossover study of loperamide-induced slowing of gut motility (colonic transit time). The class given is in vivo. The following applies: man, 8 mg b.i.d. oral loperamide. As to the method: A clinical study in man was an 8 subject multiple crossover study of the effects of oral pre-treatment with placebo, 2.4 mg or 24 mg t.i.d. of the compound of formula (II) on slowing of gut motility induced with 8 mg of b.i.d. of oral loperamide (a peripheral mu opioid agonist). […] The graph presents the effects of 2.4 or 24 mg of the compound of formula (II) on colonic transit time (in hours) following administration of loperamide. The loperamide dose was constant in the three treatment groups.

The test system of data set [5] is effect of intravenous morphine sulfate on upper gastrointestinal motility. Briefly: Phase I study in healthy volunteers with intravenous morphine sulfate. The following applies: 4 mg oral dose. Type of data set: in vivo, humans.
The subject of data set [6] is postsurgical opioid effects, postoperative nausea and vomiting. Briefly: Phase II clinical study, partial colectomy or hysterectomy, postoperative nausea and vomiting (VAS). The class given is in vivo, humans. The following applies: for patients reporting VAS nausea scores over 20 / patients exhibiting no nausea (highest VAS score=0): postoperative morphine or meperidine. How it is done: A 78 patient Phase II clinical study was conducted which compared two doses (2 mg and 12 mg) of the compound of formula (II) versus placebo in patients undergoing partial colectomy or simple or radical hysterectomy surgical procedures. All patients in this clinical study received morphine or meperidine infusions to treat postoperative pain. Oral doses of compound (II) or placebo were administered to block postsurgical opioid effects, including postoperative nausea and vomiting. Results of this study comparing patients receiving 12 mg of compound (II) and placebo are depicted graphically in FIGS. 2A and 2B.
The intensity of nausea was evaluated by patients on a 100-point visual analog scale (VAS) with VAS=0 being no nausea and VAS=100 being the worst nausea that a patient could imagine. The highest VAS nausea score (worst nausea) recorded for each patient was computed and the distributions of these maximum values were compared among the treatment groups. […] The overall treatment differences in the distributions were significant when compared using a Kruskal-Wallis test (P=0.0184). The improved outcomes observed in the 12 mg per day dose group are evident in the pairwise comparisons based on the Wilcoxon rank sum tests.

Data set [7] has as its system inhibition of gastrointestinal transit produced by MS Contin. Briefly: Phase I study in volunteers with oral sustained-release morphine (MS Contin). The class given is in vivo, humans. The following applies: 3 mg oral three times daily for 4 days, MS Contin 30 mg twice daily. The text has this: Pupil size was used as a surrogate measure of the morphine's analgesic activity.

The structures appear in SMILES notation.

On to `C[N@+]1(CC2CC2)CC[C@]23c4c5ccc(O)c4O[C@H]2C(=O)CC[C@@]3(O)[C@H]1C5` [methylnaltrexone], for which, in data set [1], the “incidence of opioid-induced nausea and pruritus” value is “effectively reduce the incidence of opioid-induced nausea and pruritus”.

As to `C[C@H]1CN(C[C@H](Cc2ccccc2)C(=O)NCC(=O)O)CCC1(C)c1cccc(O)c1` (some centres unmarked) [compound of formula (II)], the “reversal of morphine-induced constipation” value in data set [2] (chronic morphine treated mice) is listed as “even more potent in reversing morphine-induced constipation”. Besides, the “prevention of acute morphine-induced constipation (charcoal meal transit time)” value in data set [2] (mice, orally administered) is reported as “prevented acute morphine-induced constipation”. Further, the “patients withdrawn for adverse effects” value in data set [3] is given as “No patients were withdrawn for adverse effects”. In data set [3] (patients), the “antagonism of analgesia produced by intravenous morphine sulfate” value is reported as “did not antagonize” and the “antagonism of pupil constriction produced by intravenous morphine sulfate” value was “did not antagonize”. For the same compound, the solubility in water result in “solubility in water” is “low solubility in water”. Besides, the “loperamide-induced slowing of gut motility (colonic transit time)” value in data set [4] (2.4 mg t.i.d. oral pre-treatment) is “prevented loperamide-induced slowing of gut motility”. Moreover, in data set [4] (24 mg t.i.d. oral pre-treatment), the “loperamide-induced slowing of gut motility (colonic transit time)” value is on record as “prevented loperamide-induced slowing of gut motility”. For the same compound, the “effect of intravenous morphine sulfate on upper gastrointestinal motility” value in data set [5] (P<0.01) is “blocked the effect of intravenous morphine sulfate on upper gastrointestinal motility”. In addition, the morphine-induced nausea entry in data set [5] (P=0.07) is “trend toward antagonizing morphine-induced nausea”. In addition, in data set [6] (2 mg and 12 mg oral doses), the “reduction in postoperative pain control” value is “None of the patients” and the “serious adverse side effects judged related to the compound” value was “No patients experienced serious adverse side effects”. The “patients reporting VAS nausea scores over 20” value in data set [6] (2 mg dose group) came to 67%. In addition, in data set [6] (2 mg per day oral), the “patients exhibiting no nausea (highest VAS score=0)” value is on record as “approximately 25%”. In addition, in data set [6] (12 mg per day oral), the “patients exhibiting no nausea (highest VAS score=0)” value is reported as roughly 40% and the “patients reporting VAS nausea scores over 20” value was 27%. In data set [6] (12 mg per day, Wilcoxon rank sum test, P=0.0072), the “distribution of highest VAS nausea score compared to placebo” value was “statistically significantly improved”. In data set [7], the “MS Contin effects on pupil size (surrogate of analgesic activity)” value is “without antagonizing MS Contin® effects on pupil size” and the “inhibition of gastrointestinal transit produced by oral sustained-release morphine” value was “blocked the inhibition of gastrointestinal transit”.
